Several values for one entry are separate records, joined by “and”; a condition that tells them apart may be missing. Identical values can stand only once.
Assay: Solid state stability under accelerated stability conditions (70° C./75% RH, one week), monitoring purity
Type: physicochemical
Conditions: for Initial Purity: API purity before the accelerated stability stress test; for Solid state stability compared with amorphous free base and malonate salt: accelerated stability conditions 70° C./75% RH, one week; for Final Purity (post stress test): after one week at 70° C./75% RH, solid state; for Recommended storage condition for use as an API: assigned from the accelerated stability result
Experimental: The solid state stability is monitored using accelerated stability conditions (70° C./75% RH) for one week and then monitoring appearance, purity and form change. These accelerated conditions are used to assign an initial use period for the API.

Initial Purity	Solid state stability compared with amorphous free base and malonate salt	Final Purity (post stress test)	Initial Purity (listed as malonate salt) [%]	Final Purity (post stress test) (listed as malonate salt) [%]	SMILES	Recommended storage condition for use as an API
99.6%	significantly improved	99.5%			C=CC(=O)N1C[C@H](Nc2ncnc3[nH]ccc23)CC[C@@H]1C.O=P(O)(O)O [Phosphate salt, 1-((2S,5R)-5-((7H-Pyrrolo[2,3-d]pyrimidin-4-yl)amino)-2-meth-ylpiperidin-1-yl)prop-2-en-1-one Phosphoric Acid Salt (Form A)]	
99.3%		41.3& %			C=CC(=O)N1C[C@H](Nc2ncnc3[nH]ccc23)CC[C@@H]1C [Amorphous Free base, 1-((2S,5R)-5-((7H-Pyrrolo[2,3-d]pyrimidin-4-yl)amino)-2-methylpiperidin-1-yl)prop-2-en-1-one]	
99.5%		81.6%	99.5	81.6	C=CC(=O)N1C[C@H](Nc2ncnc3[nH]ccc23)CC[C@@H]1C.O=C(O)CC(=O)O [Malonate salt, 1-((2S,5R)-5-((7H-Pyrrolo[2,3-d]pyrimidin-4-yl)amino)-2-methyl-piperidin-1-yl)prop-2-en-1-one Malonic Acid Salt (Form 1)]	would require refrigeration
99.1% and 99.6%	significantly improved	97.7% and 99.6%			C=CC(=O)N1C[C@H](Nc2ncnc3[nH]ccc23)CC[C@@H]1C.Cc1ccc(S(=O)(=O)O)cc1 [Tosylate salt, 1-((2S,5R)-5-((7H-Pyrrolo[2,3-d]pyrimidin-4-yl)amino)-2-meth-ylpiperidin-1-yl)prop-2-en-1-one p-Toluenesulfonic Acid Salt (Form 1)]	would not require refrigerated storage conditions

From patent US12116368B2, “Pyrrolo[2,3-d]pyrimidine tosylate salt, crystalline form thereof and manufacturing process and intermediates thereto” (Pfizer Inc., priority 2018, dated 2024)
